Where a name gives a salt, the structure may show the parent alone. Read-outs that look alike come from different tables or passages of the source.
Experiments:
[1] = oral, adult; cited from earlier work
[2] = threshold for psychomimetic effects in humans; type: in vivo; details: worked out from THC threshold and 200 fold psychoactivity
Excerpt: Psychoactive cannabinoids have a variety of pharmacological effects that are evoked through interactions with the CB1 receptors predominantly expressed in the brain. The central nervous system effects that occur after in vivo exposure to HU-210 include euphoria, hypokinesia, hypothermia, anti-nociception, and catalepsy. Hypokinesia, hypothermia, anti-nociception, and catalepsy are the activities that form the basis of the “Tetrad assay” of CB1 mediated activity. […] The threshold for psychomimetic effects of oral THC in humans is in the range of 10-15 mg THC in an adult, i.e from about 0.16 to about 0.25 mg THC/kg body weight for adults of approximately 60 kg (“Cannabis and Cannabinoids, pharmacology, toxicology and therapeutic potential” edited by Grotenhermen and Russo, the Haworth Integrative Healing Press; Chapter 31 pp 345 and 351).

[3] = cited from earlier work
rats [4] = details: conscious rats; cited from earlier work
rats [5] = details: 10 μg/kg i.v., cited from earlier work
rat model = details: cited from earlier work
[6] = i.v.; cited from earlier work
[7] = test system: intra-ocular pressure (IOP); experiment: IOP lowering after topical administration in normotensive rabbits; type: in vivo, New Zealand White albino rabbits; details: commercially available drugs, topical
Procedure: New Zealand White albino rabbits weighing 2-2.5 kg were acclimatized in our animal facility for at least a week prior to IOP measurements. Drug, saline and blank-vehicle groups (n=8-12 animals per group) were included. In most experiments, 50 μl drops were applied at 09:00 and measurements were taken 1 hour, 3, 5, and 7 hours later. Baseline IOP was individualized for each animal and time point prior to drug testing. IOP was measured by a Digilab Pneumatonometer, Model 30R. ΔIOP was calculated by subtracting the baseline IOP from IOP value measured after drug application at a corresponding time point. Maximal ΔIOP and area under the ΔIOP×hours curve (AUC) were calculated and averaged for each group. Data of IOP, AUC, blood pressure and toxicity were analyzed by the Wilcoxon-Rank test.

For `CCCCCc1cc(O)c2c(c1)OC(C)(C)[C@@H]1CCC(C)=C[C@@H]21` [THC, Δ^9-tetrahydrocannabinol], the “threshold for psychomimetic effects” value [1] is given as 10 to 15 mg.
For `CCCCCCC(C)(C)c1cc(O)c2c(c1)OC(C)(C)[C@@H]1CC=C(CO)C[C@@H]21` [HU-210, 1,1-dimethylheptyl-(3R,4R)-7-hydroxy-Δ^6-tetrahydrocannabinol], the “maximal tolerated dose (theoretical)” value [2] is given as “less than 1.25 μg/kg body weight”, the “psychoactivity in animals relative to Δ^9-THC” value ([3]; in vivo) is given as “approximately 200 fold” and the “psychoactivity compared with HU-211” value ([3]; series of animal tests) is given as “a thousand times more psychoactive”. For the same molecule, the “psychoactivity compared with Δ^9-THC” value ([3]; series of animal tests) was “a hundred times more psychoactive”, the “bradycardia still present after drug administration” value (rats [4]) was at least 8 h and the “duration of hypotensive effects” value (rats [4]) was 2 h. For the same molecule, the “reduction of mean blood pressure” value (rats [5]) was 57±5 mm Hg, the “systemic vascular resistance index” value (rats [5]) was “without significantly affecting” and the “cardiac index after drug” value (rats [5]; from 37±1) was 23±1 mL/min/100 g. The PaCO2 after drug (rat model; from 32±0.7) was 45.7±1.6 mmHg, the “mean arterial blood pressure after drug” value (rat model; from 142±1) was 105±6 mm Hg and the “heart rate after drug” value (rat model; from 484±6) was 232±18 beats/min. The “change in cerebral glucose use” value (rat model; frontal cortex) was −19%, the “cerebral glucose use after drug” value (rat model; frontal cortex, from 69±1) was 55±3 μmol.100 g−1.min-1 and the “change in cerebral glucose use” value (rat model; occipital cortex) was −31%. For the same molecule, the “cerebral glucose use after drug” value (rat model; occipital cortex, from 60±1) was 41±2 μmol.100 g−1.min−1 and the “lowest administered dose at which hypotensive effect is detected” value [6] was 1 µg/kg.
With `CC(C)(C)NC[C@H](O)COc1nsnc1N1CCOCC1` [Timolol, reference compound] the “AUC (ΔIOP×hours)” value [7] was 7.3±3.0 mmHg×Hours.
In the case of `CC(C)(C)NC[C@H](O)COc1cccc2c1CCCC2=O` [levobunolol HCl, reference compound], the “AUC (ΔIOP×hours)” value [7] was 13.3±1.5 mmHg×Hours.
